Series [1] concerns bladder epithelium. Briefly: Effect of Big CHAP sources, purified Big CHAP and impurities on rAd-βgal gene transfer to bladder epithelium. It counts as in vivo, rat. Conditions: for cystitis / bladder irritation: Impurity I; for gene transfer and expression: column chromatography purified BC, 30 mg/ml; for rAd mediated gene transfer and expression: Big CHAP at 6 mg/ml; for epithelial gene expression: increasing concentrations of BC (Sigma), 20 mg/ml. On the procedure:
Alternate commercial sources of Big CHAP (BC) were tested for the ability to enhance rAd (recombinant adenovirus) mediated gene transfer and expression, essentially according to the method described above in Example 8.
The results are depicted in FIG. 17.
rAd-βgal was formulated in 30 mg/ml of the column chromatography purified material of both BCs and gene transfer to the bladder epithelium tested as described above.
Three impurities of BC (CALBIOCHEM®) were detected by TLC (FIG. 15) and isolated by column chromatography for gene transfer studies. Impurity I and a mixture of impurity II and impurity III were diluted in VPBS (0.6 mg/ml or 6 mg/ml) to test their efficiency in improving rAd mediated gene transfer to the bladder epithelium. […] Positive control formulation (BC, CALBIOCHEM®, upper panel, left), and the negative control formulations (BC—CALBIOCHEM®, column chromatography purified and BC—Sigma) were used at a concentration of 6 mg/ml (upper panel, right).
In this experiment, 10 mg/ml of BC (Sigma, FIG. 20 upper middle panel) was reconstituted with Impurity III (upper right panel), impurity II (lower left panel), or synthesized analog of impurity III (lower right panel). rAd-βgal, 1×10^11 PN/ml, was prepared in the spiked formulations and administered intravesically as described above.
Calbiochem Big CHAP was fractionated by column chromatography to obtain essentially pure impurities “1”, “2”, and “3” for biological testing as well as structural analysis.

In series [2] the test system is bladder epithelium. The series is described as follows: rAd-βgal gene transfer to bladder epithelium in detergent formulations, Xgal staining score and gross pathology. Conditions: detergents at their critical micellization concentration. The procedure: rAd-βgal was formulated in different detergents at their critical micellization concentration to evaluate efficiency of gene transfer to the bladder epithelium. Female rats (about 200 g b/w, Harlan Sprague Dawley) were anesthetized with isoflurane and received a single intravesical administration of rAd-βgal (1×10^11 PN/ml) in different detergent formulations (see Table I). Before instillation, bladders were flushed with PBS and then emptied. rAd-βgal was then instilled in a volume of 0.5 ml. The instilled solution was retained in the bladder for 45 minutes. The bladders were then flushed with PBS, and the animals were permitted to recover from the procedure. 48 hours after administration, the rats were sacrificed, the bladders harvested, and fixed in formalin. After fixation, the bladders were opened longitudinally so that the urothelium was exposed to the chromogen (Xgal), that is converted to a blue color, if reporter gene (β-galactosidase) expression is present. The luminal epithelial surface of the whole bladder was photographed an blue staining scored: + (minimal staining), ++ (moderate staining), +++ intense staining covering the whole bladder epithelial surface.
Briefly, in anaesthetized female rats rAd-βgal (1×10^11 PN/ml) was administered into the bladder via an intravesical catheter. rAd-βgal was formulated in different concentrations of Big CHAP (CALBIOCHEM®). A volume of 0.5 ml was injected and remained instilled in the bladder for 45 minutes. The animals were sacrificed 48 hours later, the bladder fixed in 4% formalin/glutaraldehyde, opened longitudinally, and the β-galactosidase enzyme activity measured using Xgal substrate. The intensity of blue staining correlates with the βgal-transgene expression.
Effects of higher recombinant adenovirus concentrations were also tested. Briefly, in anaesthetized female rats different concentrations of rAd-βgal, formulated in 7 mM Big CHAP (CALBIOCHEM®) were administered into the bladder via an intravesical catheter. The animals were sacrificed 48 hours later, the bladder fixed in 4% formalin/glutaraldehyde, opened longitudinally, and Xgal stained.

A short description of series [3]: Solubility and dissolution behaviour. It counts as physicochemical.
Series [4] deals with bladder. Briefly: Gene transfer activity of water-soluble Syn3 analogs in vivo, whole organ Xgal staining. Further details: species or system rat. As to conditions: for gene transfer activity compared to controls: 1 mg/ml. The procedure: A concentration of 1 mg/ml was chosen for initial testing of both compounds.
The solution of A-TMA was prepared by dissoluting 10 mg of A-TMA into 10 ml Dulbecco's PBS. Glycerol was added to provide a final concentration of 10 mg/ml. All solutions were sterile filtered prior to use (0.2 μm Acrodisc syring filter). The virus (BGCG 70AAB) was diluted 1:10 into either this A-TMA solution, or into Dulbecco's PBS-glycerol prior to administration.
Ten mg of A-HCl was dissoluted into this buffer and sterile filtered prior to use (0.2 μm Acrodisc suring filter). The virus (BGCG 70AAB) was diluted 1:10 into this solution prior to administration. For comparison, the virus diluted into this buffer without A-HCl was also tested.
Female HSD rats were anesthetized using isofluorane. The rats were transuretherally catheterized into the bladder using PE50 tubing lubricated with K-Y jelly. A tie-off was installed on the external urethra to prevent back leakage. Urine, if any, was removed and the bladder was flushed with 0.5 ml PBS and emptied. rAd was diluted to the desired concentration (1:10) and instilled for 45 minutes. The dosing material was removed, noting the return volume. The bladder was flushed with 0.5 ml PBS and emptied. The tie-off and catheter were removed, and the animals were allowed to recover in cages.
After 48 hours, the animals were sacrificed and their bladders inflation fixed with 0.5 ml fixative for 1 hour. The bladders were then rinsed overnight and whole organ Xgal staining was conducted.

“Also recorded” adds a separate entry of the source.

`COC(=O)CC[C@@H](C)[C@H]1CC[C@H]2[C@@H]3[C@H](O)C[C@@H]4C[C@H](O)CC[C@]4(C)[C@H]3C[C@H](O)[C@]12C` [Impurity I]: the “cystitis / bladder irritation” value in series [1] is “caused cystitis”; in series [1] (listed as Impurity 1) it was “bladder irritation”. Further, the “β-galactosidase gene expression in the bladder epithelium” value in series [1] (impurities diluted in VPBS, 0.6 mg/ml or 6 mg/ml) is recorded as “did not lead to increased β-galactosidase gene expression”.
Regarding `CCCCCCCCCCCCCC[N+](C)(C)CCCS(=O)(=O)[O-]` [Zwittergent ® 3-14, reference compound], the “gene transfer to the bladder epithelium (Table I)” value (“gene transfer … (Table I)” for short) in series [2] is reported as “enhanced gene transfer dramatically”.
For `C[C@H](CCC(=O)N(CCCNC(=O)[C@H](O)[C@@H](O)[C@H](O)[C@H](O)CO)CCCNC(=O)[C@H](O)[C@@H](O)[C@H](O)[C@H](O)CO)[C@H]1CC[C@H]2[C@@H]3[C@H](O)C[C@@H]4C[C@H](O)CC[C@]4(C)[C@H]3C[C@H](O)[C@]12C` [purified Big CHAP (Sigma)], the “gene transfer and expression” value is listed as “reduced ability to enhance gene transfer” in series [1] and “without any effect” in series [1] (listed as purified Sigma BC).
As to `C[C@H](CCC(=O)NCCC[N+](C)(C)CCCS(=O)(=O)[O-])[C@H]1CC[C@H]2[C@@H]3[C@H](O)C[C@@H]4C[C@H](O)CC[C@]4(C)[C@H]3C[C@H](O)[C@]12C.O` [Chaps, 3-[(3-Cholamidopropyl)dimethylammoniol]-1-propanesulfonate hydrate, reference compound], in series [2], the “gene transfer … (Table I)” value is listed as “enhanced gene transfer dramatically”.
Take `C[C@H](CCC(=O)N(CCCNC(=O)[C@H](O)[C@@H](O)[C@H](O)[C@H](O)CO)CCCNC(=O)[C@H](O)[C@@H](O)[C@H](O)[C@H](O)CO)[C@H]1CC[C@H]2[C@@H]3[C@H](O)C[C@@H]4C[C@H](O)CC[C@]4(C)[C@H]3C[C@H](O)[C@]12C` [purified Big CHAP (CALBIOCHEM®)]: in series [1], the “gene transfer and expression” value is “only slightly enhanced; also recorded: reduced ability to enhance gene transfer”.
On to Pluronic F68 [reference compound], for which, in series [2], the “gene transfer … (Table I)” value is on record as “did not have similar effects”.
Still for that read-out and setting: to `C[C@H](CCC(=O)NCCS(=O)(=O)O)[C@H]1CC[C@H]2[C@@H]3CC[C@@H]4C[C@H](O)CC[C@]4(C)[C@H]3C[C@H](O)[C@]12C` [Taurodeoxycholate, reference compound] belongs “enhanced gene transfer dramatically”.
On to `C[C@H](CCC(=O)N(CCCNC(=O)[C@H](O)[C@@H](O)[C@H](O)[C@H](O)CO)CCCNC(=O)[C@H](O)[C@@H](O)[C@H](O)[C@H](O)CO)[C@H]1CC[C@H]2[C@@H]3[C@H](O)C[C@@H]4C[C@H](O)CC[C@]4(C)[C@H]3C[C@H](O)[C@]12C` [Big CHAP, N,N,bis-(3-D-gluconamidopropyl)-cholamide, reference compound], for which the “solubility in water / aqueous solutions (in words)” value in series [3] is on record as “highly water soluble”.
As for `C[C@H](CCC(=O)NCCCN(CCCN)C(=O)CC[C@@H](C)[C@H]1CC[C@H]2[C@@H]3[C@H](O)C[C@@H]4C[C@H](O)CC[C@]4(C)[C@H]3C[C@H](O)[C@]12C)[C@H]1CC[C@H]2[C@@H]3[C@H](O)C[C@@H]4C[C@H](O)CC[C@]4(C)[C@H]3C[C@H](O)[C@]12C.Cl` [A-HCl], the “gene transfer activity compared to controls” value in series [4] is recorded as “significantly above those levels obtained by controls”. In series [3], the solubility in saline result is “not completely soluble in saline”. The compound further registered a pH of solution in series [3] (dissolution into dH2O) of 4.7.
Turning to `C[C@H](CCC(=O)NCCCN(CCC[N+](C)(C)C)C(=O)CC[C@@H](C)[C@H]1CC[C@H]2[C@@H]3[C@H](O)C[C@@H]4C[C@H](O)CC[C@]4(C)[C@H]3C[C@H](O)[C@]12C)[C@H]1CC[C@H]2[C@@H]3[C@H](O)C[C@@H]4C[C@H](O)CC[C@]4(C)[C@H]3C[C@H](O)[C@]12C.[Cl-]` [A-TMA], the “gene transfer activity compared to controls” value in series [4] is recorded as “significantly above those levels obtained by controls”. For the same compound, in series [4] (individual animals, 1 mg/ml in PBS/1% Glycerol (A-TMA) or Buffer D (A-HCl)), the “gene transfer activity” value is given as “+ +”.
For `C[C@H](CCC(=O)N(CCCNC(=O)[C@H](O)[C@@H](O)[C@H](O)[C@H](O)CO)CCCNC(=O)[C@H](O)[C@@H](O)[C@H](O)[C@H](O)CO)[C@H]1CC[C@H]2[C@@H]3[C@H](O)C[C@@H]4C[C@H](O)CC[C@]4(C)[C@H]3C[C@H](O)[C@]12C` [Big CHAP (Sigma), N,N,bis-(3-D-gluconamidopropyl)-cholamide], in series [1] (26 mg/ml), the gene transfer entry was “found to enhance gene transfer”. Moreover, the “rAd mediated gene transfer and expression” value in series [1] (listed as BC—Sigma) is reported as “did not markedly improve rAd mediated gene transfer”; in series [1] (listed as Sigma Big CHAP), “does not enhance gene transfer”. The epithelial gene expression entry in series [1] was “enhanced gene transfer at higher concentrations”; in series [1] (listed as Sigma BC), “improved epithelial gene expression”.

Source of the values: US7534769B2, “Compositions and methods for enhancing delivery of therapeutic agents to cells” (Canji, Inc., priority 1996, dated 2009).
